From ChEMBL document CHEMBL1133222 (2000)

Tests used:
[1] = biological target: T1, Endothelin-1 receptor (Rattus norvegicus) (UniProt P26684); assay: Inhibition of (125 I)-endothelin 1 binding to endothelin A receptor in rat ventricle
T1 sequence (whole entry): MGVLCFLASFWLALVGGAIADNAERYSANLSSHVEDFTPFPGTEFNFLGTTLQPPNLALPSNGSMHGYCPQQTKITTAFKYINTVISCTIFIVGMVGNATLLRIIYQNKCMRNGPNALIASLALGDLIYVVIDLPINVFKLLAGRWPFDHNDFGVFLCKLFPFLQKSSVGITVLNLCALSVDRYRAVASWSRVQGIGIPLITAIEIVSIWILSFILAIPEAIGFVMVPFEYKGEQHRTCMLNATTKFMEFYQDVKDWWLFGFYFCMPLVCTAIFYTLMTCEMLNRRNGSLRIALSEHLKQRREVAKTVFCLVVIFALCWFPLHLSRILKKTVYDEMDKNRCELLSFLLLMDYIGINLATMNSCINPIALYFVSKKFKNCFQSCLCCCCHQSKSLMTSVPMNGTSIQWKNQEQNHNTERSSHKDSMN

[2] = biological target: T2, Endothelin receptor type B (Rattus norvegicus) (UniProt P21451); settings: Cerebellum
T2 sequence (whole entry): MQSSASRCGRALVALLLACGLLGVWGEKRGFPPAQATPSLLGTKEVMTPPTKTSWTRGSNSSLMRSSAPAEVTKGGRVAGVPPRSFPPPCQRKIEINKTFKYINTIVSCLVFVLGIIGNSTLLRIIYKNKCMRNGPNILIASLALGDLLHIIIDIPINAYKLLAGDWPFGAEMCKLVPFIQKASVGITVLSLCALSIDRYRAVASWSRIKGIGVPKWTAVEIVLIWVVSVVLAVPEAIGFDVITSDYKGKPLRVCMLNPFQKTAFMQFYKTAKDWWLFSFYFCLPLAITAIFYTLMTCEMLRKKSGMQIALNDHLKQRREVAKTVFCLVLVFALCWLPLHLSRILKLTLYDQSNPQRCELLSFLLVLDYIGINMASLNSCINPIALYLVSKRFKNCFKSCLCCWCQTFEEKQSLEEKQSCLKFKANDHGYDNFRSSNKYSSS
Description: Inhibition of (125 I)-endothelin 1 binding to endothelin B receptor in rat cerebellum

Rattus norvegicus = assay: Effective dose in rat after intravenous administration; assay type: functional
Mus musculus = assay: Effective dose for ET-1 induced death in mice after peroral administration; assay type: functional; settings: po

SMILES | Binding affinity [1] | Binding affinity [2] | ED50 (Rattus norvegicus) | ED50 (Mus musculus)
COC(=O)c1cccc(Cc2c(C(=O)O)n(Cc3cc4c(cc3Cl)OCO4)c3ccccc3c2=O)c1 | 8.2 nM | 747 nM | – | –
O=C(O)c1c(Cc2ccccc2)c(=O)c2ccccc2n1Cc1cc2c(cc1Cl)OCO2 | 4.1 nM | 157 nM | – | –
O=C(O)CCCCCc1c(C(=O)O)n(Cc2cc3c(cc2Cl)OCO3)c2ccccc2c1=O | 93 nM | 9500 nM | – | –
O=C(O)c1cc(=O)c2ccccc2n1Cc1cc2c(cc1Cl)OCO2 | 8700 nM | 29000 nM | – | –
O=C(O)c1c(Cc2ccc(Br)cc2)c(=O)c2ccccc2n1Cc1cc2c(cc1Cl)OCO2 | 5.7 nM | 166 nM | – | –
COc1ccc(Cn2c(C(=O)O)c(Cc3ccc4c(c3)OCO4)c(=O)c3ccccc32)cc1 | 255 nM | 16000 nM | – | –
O=C(O)c1c(Cc2ccoc2)c(=O)c2ccccc2n1Cc1cc2c(cc1Cl)OCO2 | 29 nM | 1900 nM | – | –
CCOC(=O)C[C@H]1CC[C@H](Cc2c(C(=O)O)n(Cc3cc4c(cc3Cl)OCO4)c3ccccc3c2=O)CC1 | 4.7 nM | 5000 nM | – | –
COc1ccc(Cc2c(C(=O)O)n(Cc3cc(OC)c4c(c3)OCO4)c3ccccc3c2=O)cc1 | 9.5 nM | 244 nM | – | –
O=C(O)c1c(Cc2ccco2)c(=O)c2ccccc2n1Cc1cc2c(cc1Cl)OCO2 | 5.7 nM | 1890 nM | – | –
O=C(O)C[C@H]1CC[C@H](Cc2c(C(=O)O)n(Cc3cc4c(cc3Cl)OCO4)c3ccccc3c2=O)CC1 | 3.4 nM | 6630 nM | – | –
COc1ccc(Cc2c(C(=O)O)n(Cc3ccc4c(c3)OCO4)c3ccccc3c2=O)cc1 | 10.7 nM | 606 nM | – | –
C=Cc1ccc(Cc2c(C(=O)O)n(Cc3cc4c(cc3Cl)OCO4)c3ccccc3c2=O)cc1 | 5.6 nM | 190 nM | – | –
O=C(O)c1c(CC2CCCCC2)c(=O)c2ccccc2n1Cc1cc2c(cc1Cl)OCO2 | 1.1 nM | 100 nM | – | –
C=Cc1cc2c(cc1Cn1c(C(=O)O)c(Cc3ccc(OC)cc3)c(=O)c3ccccc31)OCO2 | 1.8 nM | 70 nM | – | –
COc1ccc(Cc2c(C(=O)O)n(Cc3cc4c(cc3Cl)OCO4)c3ccccc3c2=O)cc1 | 1.6 nM | 216 nM | – | –
CCCCc1cn(Cc2ccc(-c3ccccc3-n3cnnn3)cc2)c2ccc(CSc3ccccn3)cc2c1=O | 11000 nM | 12000 nM | – | –
COc1ccc(Cc2c(C(=O)O)n(Cc3cc4c(cc3Cl)OCO4)c3ccccc3c2=O)c(OCC(=O)O)c1 | 54.3 nM | 549 nM | – | –
COc1ccc(Cc2c(C(=O)O)n(Cc3cc(Br)c4c(c3)OCO4)c3ccccc3c2=O)cc1 | 18.9 nM | – | – | –
COc1cc(Cc2c(C(=O)O)n(Cc3cc4c(cc3Cl)OCO4)c3ccccc3c2=O)cc(OC)c1OC | 1.9 nM | 789 nM | – | –
CCCCc1cn(Cc2ccc(-c3ccccc3C(=O)O)cc2)c2ccc(Cn3ccc4ccccc43)cc2c1=O | 7600 nM | 110000 nM | – | –
CCc1cc2c(cc1Cn1c(C(=O)[O-])c(Cc3cccc(C(=O)[O-])c3)c(=O)c3ccccc31)OCO2.[K+].[K+] | 0.69 nM | 571 nM | 0.1 mg/kg | 10 mg/kg
O=C(O)c1cccc(Cc2c(C(=O)O)n(Cc3cc4c(cc3Cl)OCO4)c3ccccc3c2=O)c1 | 3 nM | 500 nM | – | –
CCc1cc2c(cc1Cn1c(C(=O)O)c(Cc3ccc(OC)cc3)c(=O)c3ccccc31)OCO2 | 1 nM | 69 nM | – | –
O=C(O)c1ccc(Cc2c(C(=O)O)n(Cc3cc4c(cc3Cl)OCO4)c3ccccc3c2=O)cc1 | 4.6 nM | 17100 nM | – | –
O=C(O)c1c(Cc2cccc(Cl)c2Cl)c(=O)c2ccccc2n1Cc1cc2c(cc1Cl)OCO2 | 10.9 nM | 570 nM | – | –
COc1ccc(Cc2c(C(=O)O)n(Cc3cc4c(cc3Br)OCO4)c3ccccc3c2=O)cc1 | 7.8 nM | 244 nM | – | –
O=C(O)c1c(Cc2cccnc2)c(=O)c2ccccc2n1Cc1cc2c(cc1Cl)OCO2 | 20.4 nM | 1600 nM | – | –
